Measured values as given in patent US7812042B2, “Pharmaceutical compositions and therapeutic applications for the use of a novel vitamin B12 derivative, N-acetyl-L-cysteinylcobalamin” (priority 2006, dated 2010).
“And” between values parts separate entries of the source, which are not always exact repeats. Equal values may be shown once. Where a name gives a salt, the structure may show the parent alone.

Legend:
Hsp32 = Hsp32 gene expression in SK-HEP-1 cells (RT-PCR, densitometry); assay type: cell-based, Human; conditions: homocysteine 30 μM, folate 30 μM (2 hr), Sn(IX) protoporphyrin 25 μM, quercitin 15 μM
Procedure: (§1) Cells were plated into 6-, 12-, or 24-well cell culture clusters, at 2×10^3, 2×10^5, or 1×10^5 cells per well and incubated until 90% confluent. Treatments were applied as above.
(§2) Following incubation, cells were subjected to mRNA extraction followed by cDNA synthesis for each sample under test. Polymerase chain reaction cDNA templates were prepared for simplex PCR protocol. PCR products were then visualized using a UV Transilluminator and images captured using a Kodak ID gel imaging system. Densitometry and statistical analysis was then performed on each gene expression band image using PSP® v 10.0 running under Windows XP®.
(§3) mRNA extraction was performed using the Quickprep micro mRNA Purification Kit. Following incubation of cells post-treatment, the media was removed from the cells, adherent cells were re-suspended in 0.4 ml extraction buffer and 0.8 ml elution buffer at 65° C. was added.
A reaction mixture was prepared in individual microcentrifuge tubes containing 2 cDNA synthesis beads, 32 μl of the mRNA solution and 1 μl of pd(N)6. This mixture was incubated at 37° C. in a water bath for 60 minutes. After incubation, 27 μl of RNase-free DEPC treated water was added to each tube to make a total volume 60 μl. cDNA samples were prepared in duplicate. Sample 1 was used immediately in RT-PCR protocol. Sample 2 was prepared for qPCR protocol by the addition of 150 μl of 95% ice-cold ethanol and stored at −20° C.
Microcentrifuge tubes from puReTaq™Ready-To-Go™ PCR Beads containing one PCR bead were labeled for each sample required. Added to the PCR bead were 17 μl of RNase-free DEPC treated water, 1 μl sense primer, 1 μl anti-sense primer and 5 μl of the cDNA solution. RT-PCR conditions were as follows: Hsp70 and β-actin, pre-treatment step, 94° C. for 1 minute, followed by denaturing at 92° C. for 1 minute, annealing at 60° C. for 1 minute and extension at 72° C. for 1 minute. Total cycles, 30, post-treatment was then carried out at 72° C. for 10 minutes. For Hsp32, pre-treatment step, 95° C. for 2 minutes, followed by denaturing at 94° C. for 30 seconds, annealing at 58° C. for 1 minute and extension at 72° C. for 1 minute. Total cycles 45, post treatment was then carried out at 72° C. for 10 minutes. Following RT-PCR, samples were stored at −20° C.
Amplification products were separated on a 1.8% agarose gel (m/v) in TAE buffer. The size of the PCR products was determined by comparison to DNA fragments of a well-defined size; therefore, 5 μl of the DNA Ladder was carefully pipetted into the first well of the gel. Successive 10 μl of each PCR sample was then pipetted into subsequent wells on the agarose gel. The gel was connected to the Power Pack and run at 100V for 30 minutes.
Gels were visualised on a UV Transilluminator. Photographs were stored using a Kodak Digital camera system fitted with a UV filter set connected to a PC. Images were then transferred to the Kodak ID gel imaging system. Densitometry was performed on each gene expression band using PSP™ v10 running under Windows XP®.
Experiments were conducted using Hsp32 and Hsp 70 gene expression as the basis for study. […] (all treatments for 2 hours).

SK-HEP-1 cells [1] = test: Protection of endothelial cells from homocysteine-induced cell death (MTS assay, absorbance at 490 nm; includes comparison of NACCbl, NAC, cyanocobalamin+NAC, free thiols, other cobalamins, folate); assay type: cell-based, Human; conditions: for Absorbance at 490 nm (n = 6): replicates Y1-Y6, listed as Hcy
Procedure: The effect of a constant concentration of NACCbl and GSCbl to protect cells against variable concentrations of homocysteine was assessed. […] Cell viability was determined by MTS® assay. Data shown in FIG. 4 are representative of means ±SE of 6 independent samples. FIG. 4 illustrates that NACCbl (▪) and GSCbl (▴) protect endothelial cells from the effect of homocysteine. […] Cell viability was determined by MTS® assay. […] There was a decrease in protection as homocysteine concentration increased, but there was still ˜60% survival at 50 μM homocysteine.
The data was normalized (log 2 and log 10) as shown in FIGS. 16 and 17 and Tables 16 and 17, respectively, below.

Hsp70 = conditions: SK-HEP-1; homocysteine 30 μM, folate 30 μM (2 hr), quercitin 15 μM
Procedure: as §1, §2, §3
A reaction mixture was prepared in individual microcentrifuge tubes containing 2 cDNA synthesis beads, 32 μl of the mRNA solution and 1 μl of pd(N)6. This mixture was incubated at 37° C. in a water bath for 60 minutes. After incubation, 27 μl of RNase-free DEPC treated water was added to each tube to make a total volume 60 μl. cDNA samples were prepared in duplicate. Sample 1 was used immediately in RT-PCR protocol.
Microcentrifuge tubes from puReTaq™Ready-To-Go™ PCR Beads containing one PCR bead were labeled for each sample required. Added to the PCR bead were 17 μl of RNase-free DEPC treated water, 1 μl sense primer, 1 μl anti-sense primer and 5 μl of the cDNA solution. RT-PCR conditions were as follows: Hsp70 and β-actin, pre-treatment step, 94° C. for 1 minute, followed by denaturing at 92° C. for 1 minute, annealing at 60° C. for 1 minute and extension at 72° C. for 1 minute. Total cycles, 30, post-treatment was then carried out at 72° C. for 10 minutes. […]
The size of the PCR products was determined by comparison to DNA fragments of a well-defined size; therefore, 5 μl of the DNA Ladder was carefully pipetted into the first well of the gel. […]

SK-HEP-1 cells [2] = test: NACCbl protection from homocysteine with Hsp32/Hsp70 inhibited by Sn(IX) protoporphyrin, quercitin or siRNA (MTS assay); assay type: cell-based, Human; conditions: where named, NACCbl 30 μM pre-treatment two hours with/without Sn(IX)PP, quercetin, replicates 1-6, listed as Hcy
Text: siRNAs for human HO-1 were synthesised in 2′-deprotected, duplexed, desalted and purified form by Dharmacon Research Inc., published sequences from Zhang et al., (Zhang, Shan et al. 2004). Human Hsp70 primers were from proprietary sequences, and all control non-targeting primer sequences were also synthesised by Dharmacon Research Inc.
Transfection was optimised using a standard siControl Tox protocol. All transfection experiments included non-targeted siRNA.
Cells were trypsinized and plated into 12- or 96-well plates at cell density of 2×10^5, then incubated for 24 hours until adherent. Complexed siRNA and transfection agent at 100 nm was added directly to each experimental well. Plates were incubated at 37° C. for 32.5 hours for mRNA gene analysis experiments or 72 hours for protein analysis by Western Blot.
Complexed siRNA and transfection agent was added to each well of either 12- or 96-well plates. Cells were then trypsinized and added directly into each test well at cell density of 2×10^5. Plates were incubated at 37° C. for 32.5 hours for mRNA gene analysis experiments or 72 hours for protein analysis by Western Blot.
Hsp32 was inhibited using either Sn (IX) protoporhyrin or using an siRNA which specifically knocks out Hsp32. Hsp70 was inhibited using quercitin or using an siRNA which specifically knocks out Hsp70. In addition, two methods were used to inhibit both Hsp32 and Hsp70: chemically Sn (IX) protoporphyrin plus quercitin was used; and then, directly, a combination of the siRNA for both genes was used simultaneously.

SK-HEP-1 cells [3] = conditions: human, 2 h
Procedure: Cell viability was determined by MTS® assay. […] Cell viability was determined by MTS® assay.

SK-HEP-1 cells [4] = test: Effect of high concentrations of NACCbl and GSCbl on SK-HEP-1 cells (MTS assay); assay type: cell-based, Human; set-up: cell viability (MTS), raw readings (FIG. 13): reference not given here; conditions: 24 hours; for cell viability (MTS), raw readings (FIG. 13): 3 replicates
methionine synthase = biological target: T1, methionine synthase (Oryctolagus cuniculus, UniProt G1SXW3); conditions: rabbit spleen extracts; cited from earlier work
T1 construct: methionine synthase activity in rabbit spleen extracts; from tissue; host or cells: rabbit spleen extracts
T1 sequence (G1SXW3 1-1218): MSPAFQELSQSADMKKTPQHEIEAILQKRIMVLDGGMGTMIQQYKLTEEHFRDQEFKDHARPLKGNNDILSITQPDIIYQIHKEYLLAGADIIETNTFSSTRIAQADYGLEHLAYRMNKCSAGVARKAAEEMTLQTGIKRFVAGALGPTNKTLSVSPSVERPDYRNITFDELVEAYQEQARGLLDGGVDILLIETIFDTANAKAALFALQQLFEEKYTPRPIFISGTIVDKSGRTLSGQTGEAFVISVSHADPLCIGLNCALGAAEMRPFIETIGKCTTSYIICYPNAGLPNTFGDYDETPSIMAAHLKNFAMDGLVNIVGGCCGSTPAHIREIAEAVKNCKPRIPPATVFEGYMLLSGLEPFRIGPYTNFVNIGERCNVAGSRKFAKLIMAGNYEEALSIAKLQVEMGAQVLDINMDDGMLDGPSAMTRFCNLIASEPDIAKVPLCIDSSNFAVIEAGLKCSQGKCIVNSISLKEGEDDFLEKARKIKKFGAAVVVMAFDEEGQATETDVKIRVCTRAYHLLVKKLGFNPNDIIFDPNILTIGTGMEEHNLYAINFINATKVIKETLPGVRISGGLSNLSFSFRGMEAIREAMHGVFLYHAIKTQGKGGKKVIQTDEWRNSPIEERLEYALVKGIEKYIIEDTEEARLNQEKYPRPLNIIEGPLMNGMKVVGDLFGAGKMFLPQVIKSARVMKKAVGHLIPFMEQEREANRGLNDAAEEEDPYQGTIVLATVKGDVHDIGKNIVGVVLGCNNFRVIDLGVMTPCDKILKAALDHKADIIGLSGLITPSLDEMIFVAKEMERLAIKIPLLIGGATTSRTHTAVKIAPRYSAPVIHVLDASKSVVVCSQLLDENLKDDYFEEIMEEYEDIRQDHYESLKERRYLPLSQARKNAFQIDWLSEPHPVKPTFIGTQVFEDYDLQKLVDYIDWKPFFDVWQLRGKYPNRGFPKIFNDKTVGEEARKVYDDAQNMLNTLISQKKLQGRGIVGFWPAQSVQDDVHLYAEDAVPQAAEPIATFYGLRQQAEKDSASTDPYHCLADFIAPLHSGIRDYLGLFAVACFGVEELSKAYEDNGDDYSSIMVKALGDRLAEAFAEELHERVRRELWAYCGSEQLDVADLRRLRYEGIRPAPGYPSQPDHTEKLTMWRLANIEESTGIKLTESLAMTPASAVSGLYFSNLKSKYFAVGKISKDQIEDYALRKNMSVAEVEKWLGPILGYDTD

[5] = Decomposition of thiolatocobalamins in PBS at 37° C. monitored by UV/Vis spectrophotometry; assay type: physicochemical; conditions: decomposition in PBS at 37° C.
Procedure: The decomposition of GSCbl, NACCbl, and HcyCbl in PBS at 37° C. was monitored by UV/Vis spectrophotometry.

SK-HEP-1 cells [6] = test: Protection from apoptosis induced by homocysteine (Caspase-3 activity); assay type: cell-based, Human; conditions: 30 μM pre-treatment two hours, then 30 μM homocysteine two hours
Procedure: Caspase 3 is activated when cells undergo apoptosis. Caspase-3 assay is a standard for apoptosis assay. Homocysteine is a known inducer of apoptosis. Cells were cultured in 96-well plates for 24 hours and then treated with reagents under test conditions. Cytotoxic agents, H2O2 and etoposide were added to negative control wells. The assay was performed according to the manufacturer's protocol, as follows: Cells were re-suspended in 100 μl of clear media and 50 μl of Caspase-3 substrate solution was immediately added to each test well. […] Cell viability was determined by MTS® assay. […] Cell viability was determined by MTS® assay.

SK-HEP-1 cells [7] = test: Protection of endothelial cells from H2O2-induced cell death (MTS assay); assay type: cell-based, Human; conditions: 2 hours pre-incubation, then 25 μM H2O2 24 hours
Procedure: The effect of increasing concentrations of NACCbl and GSCbl to protect endothelial cells from the effect of H2O2 was assessed. […] Cell viability was determined by MTS® assay. […] Cell viability was determined by MTS® assay. […] Cell viability was determined by MTS® assay.

NC(CCS)C(=O)O (racemic) [Homocysteine, DL-Homocysteine]
effect on Hsp32 gene expression (Hsp32): increase in expression | Absorbance at 490 nm, Mean (n = 6) (SK-HEP-1 cells [1]; Conc. Hcy 200.000 (μM), NACCbl 30 μM, NAC 75 μM): 0.360 | normalized cell viability (MTS), percent, mean of 6 (SK-HEP-1 cells [1]; Conc. Hcy 200.000, NACCbl 30 μM, NAC 75 μM): −0.033 | Absorbance at 490 nm (n = 6) (SK-HEP-1 cells [1]; Conc. of Hcy 25.000, NACCbl 30 μM, NAC 75 μM): 0.740 | Absorbance at 490 nm (n = 6) (SK-HEP-1 cells [1]; Conc. of Hcy 50.000, NACCbl 30 μM, NAC 75 μM): 0.770 | Absorbance at 490 nm (n = 6) (SK-HEP-1 cells [1]; Conc. of Hcy 100.000, NACCbl 30 μM, NAC 75 μM): 0.510 | Absorbance at 490 nm (n = 6) (SK-HEP-1 cells [1]; Conc. of Hcy 200.000, NACCbl 30 μM, NAC 75 μM): 0.330 and 0.390 | effect on Hsp70 gene expression (Hsp70): increase in expression | cell viability (MTS), raw readings (FIG. 11) (SK-HEP-1 cells [2]; Hcy 25 (μM) two hours): 0.74 | cell viability (MTS), raw readings (FIG. 11) (SK-HEP-1 cells [2]; Hcy 50 (μM) two hours): 0.77 | cell viability (MTS), raw readings (FIG. 11) (SK-HEP-1 cells [2]; Hcy 100 (μM) two hours): 0.51 | cell viability (MTS), raw readings (FIG. 11) (SK-HEP-1 cells [2]; Hcy 200 (μM) two hours): 0.33 and 0.39 | concentration achieving greater than 90% death (SK-HEP-1 cells [3]): 25 µM | concentration that killed cells (p<0.001) (SK-HEP-1 cells [3]): ≥ 5 µM

C/C1=C2N=C(/C=C3N=C(/C(C)=C4\[N-]C(C(CC(N)=O)C4(C)CCC(=O)NCC(C)OP(=O)([O-])OC4C(CO)OC(n5cnc6cc(C)c(C)cc65)C4O)C4(C)N=C1C(CCC(N)=O)C4(C)CC(N)=O)C(CCC(N)=O)C\3(C)C)C(CCC(N)=O)C/2(C)CC(N)=O.NC(CCC(=O)NC(C[S-])C(=O)NCC(=O)O)C(=O)O.[Co+3] (stereo not drawn) [GSCbl, Glutathionylcobalamin, reference compound]
effect on Hsp32 gene expression (Hsp32): induce Hsp32 | cell death compared with NACCbl (SK-HEP-1 cells [4]; above 0.2 mM concentration): caused greater cell death than NACCbl | cell viability (MTS), raw readings (FIG. 13) (SK-HEP-1 cells [4]; compound conc. 0.61 (μM scale)): 2.554 and 2.376 and 2.53 | cell viability (MTS), raw readings (FIG. 13) (SK-HEP-1 cells [4]; compound conc. 1.22 (μM scale)): 2.347 and 2.433 and 2.503 | cell viability (MTS), raw readings (FIG. 13) (SK-HEP-1 cells [4]; compound conc. 2.441 (μM scale)): 2.527 and 2.434 and 2.46 | cell viability (MTS), raw readings (FIG. 13) (SK-HEP-1 cells [4]; compound conc. 4.882 (μM scale)): 2.543 and 2.528 and 2.519 | cell viability (MTS), raw readings (FIG. 13) (SK-HEP-1 cells [4]; compound conc. 9.765 (μM scale)): 2.532 and 2.476 and 2.42 | cell viability (MTS), raw readings (FIG. 13) (SK-HEP-1 cells [4]; compound conc. 19.531 (μM scale)): 2.553 and 2.476 and 2.42 | cell viability (MTS), raw readings (FIG. 13) (SK-HEP-1 cells [4]; compound conc. 39.062 (μM scale)): 2.492 and 2.484 and 2.468 | cell viability (MTS), raw readings (FIG. 13) (SK-HEP-1 cells [4]; compound conc. 78.125 (μM scale)): 2.444 and 2.406 and 2.402 | cell viability (MTS), raw readings (FIG. 13) (SK-HEP-1 cells [4]; compound conc. 156.25 (μM scale)): 2.407 and 2.37 and 2.318 | cell viability (MTS), raw readings (FIG. 13) (SK-HEP-1 cells [4]; compound conc. 312.5 (μM scale)): 2.306 and 2.204 and 2.138 | cell viability (MTS), raw readings (FIG. 13) (SK-HEP-1 cells [4]; compound conc. 625 (μM scale)): 2.197 and 1.912 and 1.787 | cell viability (MTS), raw readings (FIG. 13) (SK-HEP-1 cells [4]; compound conc. 1250 (μM scale)): 1.973 and 1.846 and 1.71 | cell viability (MTS), raw readings (FIG. 13) (SK-HEP-1 cells [4]; compound conc. 2500 (μM scale)): 1.775 and 1.81 and 1.896 | cell viability (MTS), raw readings (FIG. 13) (SK-HEP-1 cells [4]; compound conc. 5000 (μM scale)): 1.728 and 1.67 and 1.623 | cell viability (MTS), raw readings (FIG. 13) (SK-HEP-1 cells [4]; compound conc. 10000 (= 10 mM)): 1.322 and 1.342 and 1.366 | promotion of methionine synthase activity (methionine synthase): more active than other cobalamins in promoting methionine synthase activity | t1/2 [5]: No decomposition within 20 hours | protection against apoptosis induced by homocysteine (SK-HEP-1 cells [6]): total protection | survival (SK-HEP-1 cells [1]; 30 μM cobalamin pre-incubation two hours, then 50 μM homocysteine two hours): ~60% | concentration required for >80% survival protection (SK-HEP-1 cells [1]; 2 hours pre-incubation, then 30 μM homocysteine 24 hours): 50 µM | protection against homocysteine-induced damage compared with free thiols (SK-HEP-1 cells [1]; Hcy 30 μM, NAC 45, GSH 100, NACCbl 12.5, GSCbl 15 μM, with or without folate 25 μM): superior to the free thiols | concentration required to achieve >80% survival (SK-HEP-1 cells [7]): 100 µM

OO [H2O2, Hydrogen peroxide]
concentration achieving greater than 90% death (SK-HEP-1 cells [3]): 12.5 µM | concentration sufficient to kill cultured endothelial cells (P<0.001) (SK-HEP-1 cells [3]): ≥ 3 μm

CC1=C2N=C(C=C3N=C(C(C)=C4[N-]C(C(CC(N)=O)C4(C)CCC(=O)NCC(C)OP(=O)([O-])OC4C(CO)OC(n5cnc6cc(C)c(C)cc65)C4O)C4(C)N=C1C(CCC(N)=O)C4(C)CC(N)=O)C(CCC(N)=O)C3(C)C)C(CCC(N)=O)C2(C)CC(N)=O.NC(CC[S-])C(=O)O.[Co+3] [HcyCbl, D,L-homocysteinyl-cobalamin]
t1/2 [5]: 6.6 h

CC(=O)N[C@@H](CS)C(=O)O [NAC, N-Acetyl-L-Cysteine, reference compound]
Absorbance at 490 nm, Mean (n = 6) (SK-HEP-1 cells [1]; Conc. Hcy 3.125 (μM), NACCbl 30 μM, NAC 75 μM): 1.897

O.O.O=c1c(O)c(-c2ccc(O)c(O)c2)oc2cc(O)cc(O)c12 [Quercitin, 2-(3,4-Dihydroxyphenyl)-3,5,7-trihydroxy-4H-1-benzopyran-4-one dihydrate]
effect on Hsp32 gene expression (Hsp32): does not inhibit Hsp32 gene expression | effect on Hsp70 gene expression (Hsp70): inhibits Hsp70 gene expression

C=CC1=C(C)c2cc3[n-]c(cc4[n-]c(cc5nc(cc1n2)C(C)=C5C=C)c(C)c4CCC(=O)O)c(CCC(=O)O)c3C.[Cl-].[Cl-].[Sn+4] [Sn (IX) protoporphyrin, 8,13-Bis(vinyl)-3,7,12,17-tetramethyl-21H,23H-porphine-2,18dipropionic acid tin(IV) dichloride]
effect on Hsp32 gene expression (Hsp32): inhibited

CN1c2c(nc(N)[nH]c2=O)NC[C@@H]1CNc1ccc(C(=O)N[C@@H](CCC(=O)O)C(=O)O)cc1 [folate, 5-Methyltetrahydrofolic acid disodium salt]
effect on Hsp32 gene expression (Hsp32): increase in expression | protection against apoptosis induced by homocysteine (SK-HEP-1 cells [6]): partial protection | effect on Hsp70 gene expression (Hsp70): increase in expression
